Results reported in ChEMBL document CHEMBL5344413, “Discovery of 4-(1,2,4-Oxadiazol-5-yl)azepan-2-one Derivatives as a New Class of Cannabinoid Type 2 Receptor Agonists for the Treatment of Inflammatory Pain” (J Med Chem, 2023).

What was measured:
[1] = molecular target: T1, Cannabinoid receptor 2 (Homo sapiens, UniProt P34972); assay: Agonist activity at human CB2 receptor expressed in CHO cells assessed as inhibition of forskolin-stimulated intracellular cAMP accumulation measured after 30 mins by Glosensor assay; format: functional, cell-based
[2] = molecular target: T1, Cannabinoid receptor 2; assay: Agonist activity at human CB2 receptor expressed in CHO cells assessed as inhibition of forskolin-stimulated intracellular cAMP accumulation measured after 30 mins by Glosensor assay relative to control; format: functional, cell-based; conditions: filed as agonist
[3] = molecular target: T2, Cannabinoid receptor 1 (Homo sapiens, UniProt P21554); assay: Agonist activity at human CB1 receptor expressed in CHO cells assessed as inhibition of forskolin-stimulated intracellular cAMP accumulation measured after 30 mins by Glosensor assay; format: cell-based
[4] = molecular target: T1, Cannabinoid receptor 2; assay: Inverse agonist activity at human CB2 receptor expressed in CHO cells assessed as forskolin-stimulated intracellular cAMP accumulation measured after 30 mins by Glosensor assay; format: functional, cell-based
[5] = molecular target: T2, Cannabinoid receptor 1; assay: Inverse agonist activity at human CB1 receptor expressed in CHO cells assessed as forskolin-stimulated intracellular cAMP accumulation measured after 30 mins by Glosensor assay; format: cell-based
[6] = species: Homo sapiens; assay: Selectivity ratio of EC50 for agonist activity at human CB1 receptor expressed in CHO cells to EC50 for agonist activity at human CB2 receptor expressed in CHO cells; format: cell-based

T1 sequence (P34972 whole entry): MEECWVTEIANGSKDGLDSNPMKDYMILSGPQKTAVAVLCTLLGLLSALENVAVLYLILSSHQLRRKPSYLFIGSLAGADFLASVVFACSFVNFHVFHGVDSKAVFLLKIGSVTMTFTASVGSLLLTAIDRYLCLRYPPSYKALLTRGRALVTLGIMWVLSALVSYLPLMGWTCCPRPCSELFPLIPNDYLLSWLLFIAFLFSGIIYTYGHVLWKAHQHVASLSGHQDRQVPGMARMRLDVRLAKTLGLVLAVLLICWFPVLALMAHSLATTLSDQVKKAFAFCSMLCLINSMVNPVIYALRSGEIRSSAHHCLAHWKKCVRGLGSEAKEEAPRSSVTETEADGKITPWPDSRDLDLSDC
T2 sequence (P21554 whole entry): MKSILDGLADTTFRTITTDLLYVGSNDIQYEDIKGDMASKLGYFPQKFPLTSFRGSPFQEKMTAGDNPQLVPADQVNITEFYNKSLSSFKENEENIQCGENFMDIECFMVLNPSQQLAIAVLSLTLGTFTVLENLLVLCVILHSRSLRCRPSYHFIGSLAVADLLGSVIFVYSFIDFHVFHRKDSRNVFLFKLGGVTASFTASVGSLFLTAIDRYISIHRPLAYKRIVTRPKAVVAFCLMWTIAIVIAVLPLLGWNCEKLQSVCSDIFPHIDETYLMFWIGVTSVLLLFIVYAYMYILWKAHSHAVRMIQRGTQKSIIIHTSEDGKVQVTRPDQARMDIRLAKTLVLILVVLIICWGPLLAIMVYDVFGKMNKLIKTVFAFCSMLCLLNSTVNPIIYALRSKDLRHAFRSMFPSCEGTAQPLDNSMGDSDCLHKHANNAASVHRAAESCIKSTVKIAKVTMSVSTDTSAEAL

EC50 [1] [µM]	Emax [2] [%]	EC50 [4] [µM]	Structure (SMILES)	EC50 [3] [µM]	EC50 [5] [µM]	Ratio EC50 [6]
1.35	82		Cc1ccc(N2CCCC(c3nc(-c4ccc(F)c5cn[nH]c45)no3)CC2=O)cc1 (centres undefined)	> 10		
0.318	81		O=C1CC(c2nc(-c3ccc(F)c4cn[nH]c34)no2)CCCN1c1ccc(F)c(F)c1 (centres undefined)	> 10		
0.449	123		O=C1CC(c2nc(-c3ccc(F)c4cc[nH]c34)no2)CCCN1c1ccc(F)cc1 (centres undefined)	> 10		
0.3	88		O=C1CC(c2nc(-c3ccc(F)c4cn[nH]c34)no2)CCCN1c1ccccc1 (centres undefined)	> 10		
> 10			O=C1CC(c2nc(Cc3ccccc3F)no2)CCCN1c1ccc(F)cc1 (centres undefined)	> 10		
> 10			O=C(c1ccc(F)cc1)N1CC2(CC(c3nc(-c4ccccc4)no3)C2)C1	> 10		
0.805	112		O=C1CC(c2nc(-c3ccc(F)c4cn[nH]c34)no2)CCCN1c1ccc(Cl)cc1 (centres undefined)	> 10		
> 10			Fc1ccc(Nc2cccc(-c3nc(-c4ccccc4)no3)c2)cc1	> 10		
0.332	92		O=C1CC(c2nc(-c3ccc(F)c4cn[nH]c34)no2)CCCN1c1cccc(F)c1F (centres undefined)	> 10		
0.11	100		O=C1CC(c2nc(-c3ccc(F)c4cn[nH]c34)no2)CCCN1c1ccc(F)cc1F (centres undefined)	> 10		
> 10			O=C1CC(c2nc(-c3ccc(F)c4cn[nH]c34)no2)CCCN1c1ccc(C(F)(F)F)cc1 (centres undefined)	> 10		
		> 10	O=C(NCCc1nc(-c2ccccc2)no1)c1ccc(F)cc1	> 10		
> 10			O=C1CC(c2nc(-c3ccccc3)no2)CCN1c1ccc(F)cc1 (centres undefined)	> 10		
> 10			O=C(c1ccc(F)cc1)N1CCC(c2nc(-c3ccccc3)no2)CC1	> 10		
> 10			O=C1CC(c2nc(-c3ccc(F)cn3)no2)CCCN1c1ccc(F)cc1 (centres undefined)	> 10		
> 10			O=C(c1ccc(F)cc1)N1CC(c2nc(-c3ccccc3)no2)C1	> 10		
> 10			O=C1CC(c2nc(-c3ccc(F)cc3Cl)no2)CCCN1c1ccc(F)cc1 (centres undefined)	> 10		
0.338	102		O=C1CC(c2nc(-c3ccc(F)c4cn[nH]c34)no2)CCCN1c1cc(F)c(F)c(F)c1 (centres undefined)		> 10	
1.21	101		COc1ccc(N2CCCC(c3nc(-c4ccc(F)c5cn[nH]c45)no3)CC2=O)cc1 (centres undefined)	> 10		
> 10			Fc1ccc(Nc2ccc(-c3nc(-c4ccccc4)no3)cc2)cc1	> 10		
2.81	78		O=C1CC(c2nc(-c3ccccc3)no2)CCCN1c1ccc(F)cc1 (centres undefined)	> 30		> 10

EC50 [1] [µM]	Emax [2] [%]	EC50 [4] [µM]	Structure (SMILES)	EC50 [3] [µM]	EC50 [5] [µM]	Ratio EC50 [6]
0.0587	80		O=C1C[C@@H](c2nc(-c3ccc(F)c4cn[nH]c34)no2)CCCN1c1ccc(F)cc1	> 30		
0.0454	93		O=C1CC(c2nc(-c3ccc(F)c4cn[nH]c34)no2)CCCN1c1ccccc1F (centres undefined)	> 10		
1.31	79		O=C1CC(c2nc(-c3ccc(F)c4cn[nH]c34)no2)CCCN1c1cccc(F)c1 (centres undefined)	> 10		
0.0348	102		O=C1C[C@H](c2nc(-c3ccc(F)c4cn[nH]c34)no2)CCCN1c1ccc(F)cc1	> 30		
> 10			O=C1CC(c2nc(-c3ccc(F)cc3C(F)(F)F)no2)CCCN1c1ccc(F)cc1 (centres undefined)	> 10		
2.12	97		O=C1CC(c2nc(-c3cccc(F)c3)no2)CCCN1c1ccc(F)cc1 (centres undefined)	> 10		
> 10			O=C1CC(c2nc(Cc3ccccc3)no2)CCCN1c1ccc(F)cc1 (centres undefined)	> 10		
> 10			O=C1CC(c2nc(Cc3ccc(F)cc3)no2)CCCN1c1ccc(F)cc1 (centres undefined)	> 10		
3.3			Cc1cc(F)ccc1-c1noc(C2CCCN(c3ccc(F)cc3)C(=O)C2)n1 (centres undefined)	> 10		
2.05	74		O=C1CC(c2nc(-c3ccc(F)c4cn[nH]c34)no2)CCCN1c1ccc(OC(F)(F)F)cc1 (centres undefined)	> 10		
> 10			O=C1CC(c2nc(-c3ccccc3F)no2)CCCN1c1ccc(F)cc1 (centres undefined)	> 10		
0.445	91		COc1cc(F)ccc1-c1noc(C2CCCN(c3ccc(F)cc3)C(=O)C2)n1 (centres undefined)	> 10		
1.21	97		O=C1CC(c2nc(-c3ccc(F)c4ccccc34)no2)CCCN1c1ccc(F)cc1 (centres undefined)	> 10		
> 10			O=C1CC(c2nc(Cc3cccc(F)c3)no2)CCCN1c1ccc(F)cc1 (centres undefined)	> 10		
> 10			O=C1CC(c2nc(-c3ccc(Cl)cc3)no2)CCCN1c1ccc(F)cc1 (centres undefined)	> 10		
> 10			O=C1CC(c2nc(-c3ccncc3)no2)CCCN1c1ccc(F)cc1 (centres undefined)	> 10		
> 10			O=C1C=C(c2nc(-c3ccccc3)no2)CCCN1c1ccc(F)cc1	> 10		
> 10			O=C1CC(c2nc(-c3ccc(F)cc3F)no2)CCCN1c1ccc(F)cc1 (centres undefined)	> 10		
> 10			CC(=O)c1ccc(N2CCCC(c3nc(-c4ccc(F)c5cn[nH]c45)no3)CC2=O)cc1 (centres undefined)	> 10		
1.39	91		O=C1CC(c2nc(-c3ccc(F)cc3)no2)CCCN1c1ccc(F)cc1 (centres undefined)	> 10		
> 10			CN1CCCC(c2nc(-c3ccc(F)c4cn[nH]c34)no2)CC1=O (centres undefined)	> 10		
